Broadly, the LC50 is the concentration that kills 50% of the test population.

The results in this text go back to patent US20240150356A1, “Pyrimidine amide compounds and use thereof” (ALPHALA CO., LTD., priority 2019, published 2024).

This assay has as its system Hep3B cells (hepatocellular carcinoma cell line). The assay is described as follows: In vitro MTS cell viability assay (NCI-60 methodology), Hep3B. The class given is cell-based. Conditions: Homo sapiens, 48 h, 2 days drug incubation, 50% reduction vs time zero, read-out: Hep3B LC50. The essentials: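 Following NCI-60 method, MTS viability of Hep3B measured 24 h after plating (time zero) and after a further 2-day exposure to five concentrations (2-fold series). LC50 defined where [(Ti−Tz)/Tz]×100 = −50.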

Like-named read-outs stand apart in the source and are kept apart here.

Take `CCOc1ccc(-c2nc(NC(=O)c3ccc([N+](=O)[O-])s3)c3cnn(C4CCC(F)(F)CC4)c3n2)cc1` [Compound 10-59, N-(1-(4,4<fluorocyclohexyl)-4-(4-ethoxyphenyl)-1H-pyrazolo[3,4-d]pyrimidin-4-yl)-5-nitrothiophene-2-carboxamide]: the LC50 (Table 10, MTS) amounted to 1280 nM.

For the compound `COCCOc1ccc(-c2nc(NC(=O)c3ccc([N+](=O)[O-])s3)c3cnn(-c4ccc(F)cc4)c3n2)c(F)c1` [Compound 6-138, N-(6-(2-fluoro-4-(2-methoxyethoxy)phenyl)-1-(4-fluorophenyl)-1H-pyrazolo[3,4,d]pyrimidin-4-yl)-5-nitrothiophene-2-carboxamide], the LC50 (Table 6, MTS) is more than 1250 nM. In the case of `CC(C)n1cc2nc(-c3ccc(C(C)(C)C)cc3)nc(NC(=O)c3ccc([N+](=O)[O-])s3)c2c1` [Compound 3-12, N-(2-(4-(tert-butyl)phenyl)-6-isopropyl-6H-pyrrolo[3,4-d]pyrimidin-4-yl)-5-nitrothiophene-2-carboxamide], the LC50 (Table 3, MTS) is more than 10000 nM. `O=C(Nc1nc(-c2ccc(Cl)cc2)nc2c1cnn2C1CCCC1)c1ccc([N+](=O)[O-])s1` [Compound 8-9, N-(6-(4-chlorophenyl)-1-cyclopentyl-1H-pyrazolo[3,4-d]pyrimidin-4-yl)-5-nitrothiophene-2-carboxamide]: where the note is “Table 8, MTS”, the LC50 is 940 nM. For the compound `O=C(Nc1nc(-c2ccc(Cl)cc2)nc2c1cnn2C1CCC(F)(F)CC1)c1ccc([N+](=O)[O-])s1` [Compound 10-56, N-(6-(4-chlorophenyl)-1-(4,4-difluorocyclohexyl)-1H-pyrazolo[3,4,d]pyrimidin-4-yl)-5-nitrothiophene-2-carboxamide], where the note is “Table 10, MTS”, the LC50 was determined as 770 nM. Turning to `O=C(Nc1nc(-c2ccco2)nc2c1cnn2-c1ccccc1)c1ccc([N+](=O)[O-])s1` [Compound 5-17, N-(6-(furan-2-yl)-1-phenyl-1H-pyrazolo[3,4-d]pyrimidin-4-yl)-5-nitrothiophene-2-carboxamide], the LC50 (Table 5, MTS) was 400 nM. For the compound `CC1(C)CCC(n2ncc3c(NC(=O)c4ccc([N+](=O)[O-])s4)nc(-c4ccc(F)cc4)nc32)CC1` [Compound 10-61], the LC50 (Table 10, MTS) came to 550 nM. Still for that read-out and setting: then `CS(=O)(=O)c1ccc(-c2nc(NC(=O)c3ccc([N+](=O)[O-])s3)c3cnn(C4CCCCC4)c3n2)cc1` [Compound 10-34, N-(1-cyclohexyl-6-(4-(methylsulfonyl)phenyl)-1H-pyrazolo[3,4-d]pyrimidin-4-yl)-5-nitrothiophene-2-carboxamide], with 930 nM. As to `CC(C)(C)C(=O)N1CCC(n2ncc3c(NC(=O)c4ccc([N+](=O)[O-])s4)nc(-c4ccc(F)nc4)nc32)CC1` [Compound 9-8, N-(6-(6-fluoropyridin-3-yl)-1-(1-pivaloylpiperidin-4-yl)-1H-pyrazolo[3,4,d]pyrimidin-4-yl)-5-nitrothiophene-2-carboxamide], the LC50 (Table 9, MTS) amounted to 1900 nM. For the compound `COc1ccc(-c2nc(NC(=O)c3ccc([N+](=O)[O-])s3)c3cnn(Cc4cccc(F)c4)c3n2)cn1` [Compound 7-18], the LC50 (Table 7, MTS) is more than 1250 nM.

`O=C(Nc1nc(-c2ccc(Cl)cc2)nc2c1cnn2-c1ccc(Cl)cc1)c1ccc([N+](=O)[O-])s1` [Compound 6-49, N-(1,6-bis(4-chlorophenyl)-1H-pyrazolo[3,4-d]pyrimidin-4-yl)-5-nitrothiophene-2-carboxamide]: the LC50 (Table 6, MTS) stood at 170 nM. The same measure, in the same setting: then `O=C(Nc1nc(-c2ccc(C(F)(F)F)cc2)nc2c1cnn2-c1ccc(OC(F)(F)F)cc1)c1ccc([N+](=O)[O-])s1` [Compound 6-88, 5-nitro-N-(1-(4-(trifluoromethoxy)phenyl)-6-(4-(trifluormethyl)phenyl)-1H-pyrazolo[3,4-d]pyrimidin-4-yl)thiophene-2-carboxamide], with 420 nM.

For `Cn1ncc2c(NC(=O)c3ccc([N+](=O)[O-])s3)nc(-c3ccc(OC(C)(C)C)cc3)nc21` [Compound 1-7, N-(6-(4-(tert-butoxy)phenyl)-1-methyl-1H-pyrazolo[3,4-d]pyrimidin-4-yl)-5-nitrothiophene-2-carboxamide], the LC50 (Table 1, MTS) turned out to be 1510 nM. `O=C(Nc1nc(-c2ccc3c(c2)OCO3)nc2c1cnn2C1CCCCC1)c1ccc([N+](=O)[O-])s1` [Compound 10-36, N-(6-(benzo[d][1,3]dioxol-5-yl)-1-cyclohexyl-1H-pyrazolo[3,4-d]pyrimidin-4-yl)-5-nitrothiophene-2-carboxamide]: the median lethal concentration (LC50) (Table 10, MTS) was determined as 2120 nM. For `CCn1cc2nc(-c3ccc(C(C)(C)C)cc3)nc(NC(=O)c3ccc([N+](=O)[O-])s3)c2c1` [Compound 3-11, N-(2-(4-(tert-butyl)phenyl)-6-ethyl-6H-pyrrolo[3,4-d]pyrimidin-4-yl)-5-nitrothiophene-2-carboxamide], under “Table 3, MTS”, the LC50 turned out to be 7640 nM.

With `C=CC(=O)N1CCC(c2nc(NC(=O)c3ccc([N+](=O)[O-])s3)c3cnn(-c4ccccc4)c3n2)CC1` [Compound 5-2, N-(6-(1-acryloylpiperidin-4-yl)-1-phenyl-1H-pyrazolo[3,4-d]pyrimidin-4-yl)-5-nitrothiophene-2-carboxamide], the LC50 (Table 5, MTS) is 2470 nM. With `CC1CC(C)CC(n2ncc3c(NC(=O)c4ccc([N+](=O)[O-])s4)nc(-c4ccc(F)nc4)nc32)C1` (stereo not shown) [Compound 10-68, N-(1-(3,5-dimethylcyclohexyl)-6-(6-fluoropyridin-3-yl)-1H-pyrazolo[3,4-d]pyrimidin-4-yl)-5-nitrothiophene-2-carboxamide], the LC50 (Table 10, MTS) was determined as 970 nM. On to `C[C@@H]1C[C@@H](n2ncc3c(NC(=O)c4ccc([N+](=O)[O-])s4)nc(-c4ccc(Cl)cc4)nc32)CC(C)(C)C1` [Compound 8-15, N-(6-(4-chlorophenyl)-1-((1R,5S)-3,3,5-trimethylcyclohexyl)-1H-pyrazolo[3,4-d]pyrimidin-4-yl)-5-nitrothiophene-2-carboxamide], for which, where the note is “Table 8, MTS”, the LC50 amounted to 1270 nM.

Take `COC(=O)[C@@H]1CCCN1c1nc(NC(=O)c2ccc([N+](=O)[O-])s2)c2cnn(-c3ccc(F)cc3)c2n1` [Compound 6-100, methyl (1-(4-fluorophenyl)-4-(5-nitrothiophene-2-carboxamido)-1H-pyrazolo [3,4-d]pyrimidin-6-yl)-L-prolinate]: the LC50 (Table 6, MTS) was 740 nM. Turning to `O=C(Nc1nc(-c2cc(C(F)(F)F)ccc2F)nc2c1cnn2-c1ccccc1)c1ccc([N+](=O)[O-])s1` [Compound 5-50, N-(6-(2-fluoro-5-(trifluoromethyl)phenyl)-1-phenyl-1H-pyrazolo[3,4-d]pyrimidin-4-yl)-5-nitrothiophene-2-carboxamide], under “Table 5, MTS”, the LC50 came to 350 nM. With `COc1ccc(/C=C/c2nc(NC(=O)c3ccc([N+](=O)[O-])s3)c3cnn(C)c3n2)cc1` [Compound 1-12, (E)-N-(6-(4-methoxystyryl)-1-methy-1H-pyrazolo[3,4-d]pyrimidin-4-yl)-5-nitrothiophene-2-carboxamide], the LC50 (Table 1, MTS) was more than 5000 nM. For `Cc1ccc(-n2ncc3c(NC(=O)c4ccc([N+](=O)[O-])s4)nc(-c4ccc(C(F)(F)F)cc4)nc32)cc1` [Compound 6-8, 5-nitro-N-(1-(p-tolyl)-6-(4-(trifluoromethyl)phenyl)-1H-pyrazolo[3,4-d]pyrimidin-4-yl)thiophene-2-carboxamide], the 50% lethal concentration (LC50) (Table 6, MTS) came out at 350 nM.

Take `COC(=O)[C@@H]1CCCN1c1nc(NC(=O)c2ccc([N+](=O)[O-])s2)c2cnn(-c3cccc(Cl)c3)c2n1` [Compound 6-32, methyl (1-(3-chlorophenyl)-4-(5-nitrothiophene-2-carboxamido)-1H-pyrazolo[3,4-d]pyrimidin-6-yl)-L-prolinate]: the LC50 (Table 6, MTS) stood at 560 nM. In the case of `CC(C)(C)c1ccc(-c2nc(NC(=O)c3ccc([N+](=O)[O-])s3)nc3c2cnn3C(C)(C)C)cc1` [Compound 2-5, N-(1-(tert-butyl)-4-(4-(tert-butyl)phenyl)-1H-pyrazolo[3,4-d]pyrimidin-6-yl)-5-nitrothiophene-2-carboxamide], where the note is “Table 2, MTS”, the LC50 was 12900 nM. With `CC(C)(C)c1ccc(-c2nc(NC(=O)c3ccc([N+](=O)[O-])s3)c3cnn(-c4ccccc4)c3n2)cc1` [Compound 5-37, N-(6-(4-(tert-butyl)phenyl)-1-phenyl-1H-pyrazolo[3,4-d]pyrimidin-4-yl)-5-nitrothiophene-2-carboxamide], under “Table 5, MTS”, the LC50 came out at 780 nM. With `O=C(Nc1nc(-c2ccc(OC(F)(F)F)cc2)nc2c1cnn2CCN1CCC(F)(F)C1)c1ccc([N+](=O)[O-])s1` [Compound 1-32, N-(1-(2-(3,3-difluoropyrrolidin-1-yl)ethyl)-6-(4-(trifluoromethoxy)phenyl)-1H-pyrazolo[3,4-d]pyrimidin-4-yl)-5-nitrothiophene-2-carboxamide], where the note is “Table 1, MTS”, the LC50 was determined as 770 nM. `O=C(Nc1nc(-c2ccc(Cl)cc2)nc2c1cnn2C1CCCCC1)c1ccc([N+](=O)[O-])s1` [Compound 10-17, N-(6-(4-chlorophenyl)-1-cyclohexyl-1H-pyrazolo[3,4-d]pyrimidin-4-yl)-5-nitrothiophene-2-carboxamide]: the LC50 (Table 10, MTS) came out at 530 nM. On to `Cc1csc2c(NC(=O)c3ccc([N+](=O)[O-])s3)nc(-c3cc(F)c(F)c(F)c3)nc12` [Compound 4-9, N-(7-methyl-2-(3,4,5-trifluorophenyl)thieno[3,2-d]pyrimidin-4-yl)-5-nitrothiophene-2-carboxamide], for which, for the setting “Table 4, MTS”, the LC50 was more than 10000 nM.
